These results are taken from patent publication US9181259B2 (LEO PHARMA A/S, priority 2012, dated 2015).

For one data set, the target named is T1, NK1 receptor (Homo sapiens, UniProt P25103).
T1 construct: Measurement of NK1 Receptor Mediated Intracellular [Ca^2+]; Mobilization in U251 MG Cells Using FLIPR; endogenous in cells; host or cells: U251 MG cells
As to the kind of experiment: NK1 receptor mediated intracellular [Ca2+] mobilization in U251 MG cells using FLIPR. Type of data set: cell-based. The conditions noted are these: antagonist potency against Substance P (EC80), normalized to 100 nM Aprepitant, read-out: U251MG (FLIPR pIC50) (converted). The gist of the method:
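Fluo-4-loaded U251 MG cells were preincubated with compound (0.5% DMSO final), with any agonist effect read for 5 min, then 10 min more at 37 °C before Substance P at EC80. Peak FLIPR fluorescence change was read, and IC50 came from a four-parameter fit as the midpoint between fitted top and bottom.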

Data set [1] is described as follows: Hepatic intrinsic clearance following incubation in human liver microsomes. Type of data set: in vitro ADME. The conditions noted are these: NADPH regenerating system, 0-30 min, 37 °C. On the procedure:
Hepatic Extraction Ratio from Hepatic Intrinsic Clearance Following Incubation in Human Liver Microsomes
The general procedure consists of an automated incubation system and LC-MS/MS analysis with human liver microsomes. Human liver microsomes are thawed rapidly in a waterbath at 37° C. and kept on ice until use. The human liver microsomes are diluted with 50 mM potassium phosphate buffer pH 7.4 to a protein concentration of 0.55 mg/mL. Test compounds and positive controls (Verapamil and Dextromethorphan, positive controls for CYP3A4 for CYP2D6 isoforms, respectively) are dissolved in methanol (or other appropriate solvent, if necessary) in order to obtain a 5 mM solution which is further diluted to the concentration of 50 μM. The stock solutions are prepared immediately before the test.
5 μL of 50 μM test compounds and controls are added to 445 μL-of the 0.55 mg/mL microsomes solution and the incubation mixture are pre-warmed at 37° C. for 5 minutes.
The incubation reactions are initiated by adding 50 μL of pre-warmed NADPH regenerating system to the incubation mixtures. 50 μL-aliquots will be taken from the incubation mixtures at: 0, 3, 6, 9, 15 and 30 minutes and the reactions are stopped by adding 100 μL of ACN containing Rolipram, used as generic Internal Standard (1S). Samples are then diluted with 120 μL of Milli-Q water and centrifuged at 3000 rpm for 10 minutes, prior the LC-MS/MS analysis.
The integrated peak areas for test compounds at the selected time points are divided by the respective peak areas of the IS and the percent of parent remaining is calculated by normalizing the peak area ratio of parent to IS at 0 min. Observed rate constant (kobs) for parent degradation is calculated by determining the slope of the line of the graph of the natural log of percentage parent remaining versus time of incubation. From the rate of depletion (min-1) and volume of the incubation (mL), clearance is estimated. This is scaled for the protein in the incubation relative to that in the intact liver, for all species (mL/min/g liver).
Values for the Human in vitro Clint are expressed as mL/min/g liver.
Assuming a liver weight of 25.7 g/kg and a liver blood flow of 20.7 mL/min/kg, the hepatic extraction ratio, Eh, can be derived from the Human in vitro Clint:
E.g. a Human in vitro Clint of 2.4 mL/min/g liver corresponds to a hepatic extraction ratio of 75%.
Some compounds of the present invention were tested according to example 121.
(In general: Microsomes from liver hold many membrane-bound enzymes, among them those of drug oxidation.)

Structures can show the parent of a compound that is named as a salt.

T1 sequence (P25103 whole entry): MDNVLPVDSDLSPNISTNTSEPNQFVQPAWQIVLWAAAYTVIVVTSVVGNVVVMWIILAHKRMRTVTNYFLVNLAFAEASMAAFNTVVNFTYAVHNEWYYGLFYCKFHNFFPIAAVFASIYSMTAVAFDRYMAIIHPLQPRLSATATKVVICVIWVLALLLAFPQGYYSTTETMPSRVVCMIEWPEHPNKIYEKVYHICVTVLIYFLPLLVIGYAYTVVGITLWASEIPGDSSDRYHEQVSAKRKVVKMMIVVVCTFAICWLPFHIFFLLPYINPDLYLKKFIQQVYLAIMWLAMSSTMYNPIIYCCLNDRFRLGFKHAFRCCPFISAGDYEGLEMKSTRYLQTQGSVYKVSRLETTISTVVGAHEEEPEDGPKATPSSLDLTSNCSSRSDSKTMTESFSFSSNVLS

Regarding `Cc1ccccc1C1C2CC(CN3CCCC3)C(=O)N2CCN1C(=O)N(C)Cc1cc(C(F)(F)F)cc(C(F)(F)F)c1` (single isomer, unassigned) [Compound 30, N-{[3,5-bis(trifluoromethyl)phenyl]methyl}-N-methyl-1-(2-methylphenyl)-6-oxo-7-(pyrrolidin-1-ylmethyl)-octahydropyrrolo[1,2-a]piperazine-2-carboxamide], on NK1 receptor, the IC50 was 0.38 nM. In data set [1], the “Human in vitro Clint (mL/min/g liver)” value was 2.4 mL/min/g liver.
On to `Cc1ccccc1[C@H]1[C@@H]2CC(CCO)(CCO)C(=O)N2CCN1C(=O)N(C)[C@@H](C)c1cc(F)cc(C(F)(F)F)c1` [Compound 92, (1S,8aS)-N-((S)-1-(3-fluoro-5-(trifluoromethyl)phenyl)ethyl)-7,7-bis(2-hydroxyethyl)-N-methyl-6-oxo-1-o-tolylhexahydropyrrolo[1,2-a]pyrazine-2(1H)-carboxamide], for which the IC50 on NK1 receptor is 0.0158 nM. Further, the “Human in vitro Clint (mL/min/g liver)” value in data set [1] came out at 11 mL/min/g liver.
On the same counts, the results for `Cc1ccccc1[C@H]1[C@H]2CCC(=O)N2CCN1C(=O)N(C)[C@H](C)c1cc(C(F)(F)F)cc(C(F)(F)F)c1` (single isomer, unassigned) [Compound 75] are 0.0316 nM and 32 mL/min/g liver.
On the same counts, the results for `Cc1ccccc1C1C2CCC(=O)N2CCN1C(=O)N(C)Cc1cc(C(F)(F)F)cc(C(F)(F)F)c1` (single isomer, unassigned) [Compound 18, N-{[3,5-bis(trifluoromethyl)phenyl]methyl}-N-methyl-1-(2-methylphenyl)-6-oxo-octahydropyrrolo[1,2-a]piperazine-2-carboxamide] are 0.603 nM and 2.8 mL/min/g liver.
For `Cc1cc([C@@H](C)N(C)C(=O)N2CCN3C(=O)C4(CCOCC4)C[C@H]3[C@@H]2c2ccccc2C)cc(C(F)(F)F)c1` [Compound 101], the IC50 at NK1 receptor is 0.0251 nM. The “Human in vitro Clint (mL/min/g liver)” value in data set [1] was 6.9 mL/min/g liver.
The corresponding values for `CCC(c1cc(C(F)(F)F)cc(C(F)(F)F)c1)N(C)C(=O)N1CCN2C(=O)C(CCO)(CCO)C[C@H]2[C@@H]1c1ccccc1C` (stereo partly drawn) [Compound 83, (1S,8aS)-N-(1-(3,5-bis(trifluoromethyl)phenyl)propyl)-7,7-bis(2-hydroxyethyl)-N-methyl-6-oxo-1-o-tolylhexahydropyrrolo[1,2-a]pyrazine-2(1H)-carboxamide] are 0.132 nM and 7.8 mL/min/g liver.
As to `Cc1ccccc1[C@H]1[C@@H]2CC3(CCNCC3)C(=O)N2CCN1C(=O)N(C)[C@H](C)c1cc(C(F)(F)F)cc(C(F)(F)F)c1` [Compound 106, (1′S,8a′S)-N-((R)-1-(3,5-bis(trifluoromethyl)phenyl)ethyl)-N-methyl-6′-oxo-1′-o-tolyltetrahydro-1′H-spiro[piperidine-4,7′-pyrrolo[1,2-a]pyrazine]-2′(6′(6′H)-carboxamide, formic acid salt], the IC50 on NK1 receptor was 0.115 nM. In data set [1], the “Human in vitro Clint (mL/min/g liver)” value worked out at 0.19 mL/min/g liver.
Regarding `Cc1cc([C@@H](CO)N(C)C(=O)N2CCN3C(=O)C(CCO)(CCO)C[C@H]3[C@@H]2c2ccccc2C)cc(C(F)(F)F)c1` [Compound 111, (1S,8aS)-N-((S)-2-hydroxy-1-(3-methyl-5-(trifluoromethyl)phenyl)ethyl)-7,7-bis(2-hydroxyethyl)-N-methyl-6-oxo-1-o-tolylhexahydropyrrolo[1,2-a]pyrazine-2(1H)-carboxamide], on NK1 receptor, the IC50 was 0.0617 nM. Moreover, the “Human in vitro Clint (mL/min/g liver)” value in data set [1] is 3.7 mL/min/g liver.
The corresponding values for `Cc1ccccc1[C@H]1[C@@H]2CC(CCO)(CCO)C(=O)N2CCN1C(=O)N(C)[C@H](CO)c1cc(F)cc(C(F)(F)F)c1` [Compound 94, (1S,8aS)-N-((S)-1-(3-fluoro-5-(trifluoromethyl)phenyl)-2-hydroxyethyl)-7,7-bis(2-hydroxyethyl)-N-methyl-6-oxo-1-o-tolylhexahydropyrrolo[1,2-a]pyrazine-2(1H)-carboxamide] are 0.0501 nM and 3.4 mL/min/g liver.
The corresponding values for `Cc1ccccc1[C@H]1[C@@H]2CC(CCO)(CCO)C(=O)N2CCN1C(=O)N(C)[C@H](C)c1cc(C(F)F)cc(C(F)(F)F)c1` [Compound 97, (1S,8aS)-N-((R)-1-(3-(difluoromethyl)-5-(trifluoromethyl)phenyl)ethyl)-7,7-bis(2-hydroxyethyl)-N-methyl-6-oxo-1-o-tolylhexahydropyrrolo[1,2-a]pyrazine-2(1H)-carboxamide] are 0.0501 nM and 14 mL/min/g liver.
On the same counts, the results for `Cc1ccccc1C1C2CC(CO)C(=O)N2CCN1C(=O)N(C)[C@H](C)c1cc(C(F)(F)F)cc(C(F)(F)F)c1` (single isomer, unassigned) [Compound 56] are 0.112 nM and 0.34 mL/min/g liver.
Turning to `Cc1ccccc1[C@H]1[C@@H]2CC3(CCOCC3)C(=O)N2CCN1C(=O)N(C)[C@H](C)c1cc(C(F)(F)F)cc(C(F)(F)F)c1` [Compound 100, (1′S,8a′S)-N-((R)-1-(3,5-bis(trifluoromethyl)phenyl)ethyl)-N-methyl-6′-oxo-1′-o-tolyloctahydro-1′H-spiro[pyran-4,7′-pyrrolo[1,2-a]pyrazine]-2′(6′H)-carboxamide], the IC50 at NK1 receptor is 0.126 nM. In addition, the “Human in vitro Clint (mL/min/g liver)” value in data set [1] stood at 3.0 mL/min/g liver.
Consider `Cc1ccccc1[C@H]1[C@@H]2CC(CCO)(CCO)C(=O)N2CCN1C(=O)N(C)[C@H](C)c1cc(Cl)cc(C(F)(F)F)c1` [Compound 89, (1S,8aS)-N-((R)-1-(3-chloro-5-(trifluoromethyl)phenyl)ethyl)-7,7-bis(2-hydroxyethyl)-N-methyl-6-oxo-1-o-tolylhexahydropyrrolo[1,2-a]pyrazine-2(1H)-carboxamide], for which, on NK1 receptor, the IC50 is 0.126 nM. The “Human in vitro Clint (mL/min/g liver)” value in data set [1] turned out to be 15 mL/min/g liver.
As to `COc1cc([C@@H](C)N(C)C(=O)N2CCN3C(=O)C(CCO)(CCO)C[C@H]3[C@@H]2c2ccccc2C)cc(C(F)(F)F)c1` [Compound 91, (1S,8aS)-7,7-bis(2-hydroxyethyl)-N-((R)-1-(3-methoxy-5-(trifluoromethyl)phenyl)ethyl)-N-methyl-6-oxo-1-o-tolylhexahydropyrrolo[1,2-a]pyrazine-2(1H)-carboxamide], the IC50 at NK1 receptor is 0.0631 nM. In data set [1], the “Human in vitro Clint (mL/min/g liver)” value is on record as 8.5 mL/min/g liver.
The corresponding values for `Cc1ccccc1C1C2CC(CN3CCOCC3)C(=O)N2CCN1C(=O)N(C)Cc1cc(C(F)(F)F)cc(C(F)(F)F)c1` (single isomer, unassigned) [Compound 29, N-{[3,5-bis(trifluoromethyl)phenyl]methyl}-N-methyl-1-(2-methylphenyl)-7-(morpholin-4-ylmethyl)-6-oxo-octahydropyrrolo[1,2-a]piperazine-2-carboxamide] are 0.398 nM and 6.4 mL/min/g liver.
As to `Cc1cc([C@@H](C)N(C)C(=O)N2CCN3C(=O)CC[C@H]3[C@@H]2c2ccccc2C)cc(C(F)(F)F)c1` [Compound 107, (1S,8aS)-N-methyl-N-((R)-1-(3-methyl-5-(trifluoromethyl)phenyl)ethyl)-6-oxo-1-o-tolylhexahydropyrrolo[1,2-a]pyrazine-2(1H)-carboxamide], on NK1 receptor, the IC50 is 0.107 nM. Moreover, the “Human in vitro Clint (mL/min/g liver)” value in data set [1] stood at 9.2 mL/min/g liver.
Turning to `COc1cc([C@@H](CO)N(C)C(=O)N2CCN3C(=O)C(CCO)(CCO)C[C@H]3[C@@H]2c2ccccc2C)cc(C(F)(F)F)c1` [Compound 95, (1S,8aS)-N-((S)-2-hydroxy-1-(3-methoxy-5-(trifluoromethyl)phenyl)ethyl)-7,7-bis(2-hydroxyethyl)-N-methyl-6-oxo-1-o-tolylhexahydropyrrolo[1,2-a]pyrazine-2(1H)-carboxamide], the IC50 at NK1 receptor is 0.155 nM. In data set [1], the “Human in vitro Clint (mL/min/g liver)” value came to 2.1 mL/min/g liver.
With `Cc1ccccc1C1C2CC(CO)CN2CCN1C(=O)N(C)Cc1cc(C(F)(F)F)cc(C(F)(F)F)c1` (single isomer, unassigned) [Compound 49, N-{[3,5-bis(trifluoromethyl)phenyl]methyl}-7-(hydroxymethyl)-N-methyl-1-(2-methylphenyl)-octahydropyrrolo[1,2-a]piperazine-2-carboxamide], at NK1 receptor, the IC50 is 0.347 nM. Moreover, the “Human in vitro Clint (mL/min/g liver)” value in data set [1] worked out at 1.9 mL/min/g liver.
